pEC50, pKi: −log10 of the molar value.
Columns and labels:
[1] = target: T1, human emopamil binding protein and human 7-dehydrocholesterol reductase (hEBP-DHCR7) (Homo sapiens, UniProt Q15125); assay: hEBP-DHCR7 radioligand filtration binding assay; details: membranes of HEK293 co-expressing hEBP and DHCR7; [3H] 2-thia-6-azaspiro[3.4]octane radioligand; 8 doses 0.06 to 5000 nM
T1 construct: expressed in transfected cells; host or cells: HEK 293 cells, transient transfection with 2 DNA constructs
T1 sequence (Q15125 whole entry): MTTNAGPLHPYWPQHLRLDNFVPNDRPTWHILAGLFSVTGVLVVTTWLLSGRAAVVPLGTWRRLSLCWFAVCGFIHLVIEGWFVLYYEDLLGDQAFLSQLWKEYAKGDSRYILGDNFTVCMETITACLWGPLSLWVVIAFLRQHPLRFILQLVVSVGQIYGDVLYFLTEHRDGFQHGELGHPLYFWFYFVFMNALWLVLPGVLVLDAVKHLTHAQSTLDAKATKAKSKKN
Method: Membrane Preparation: human emopamil binding protein and human 7-dehydrocholesterol reductase co-expressing cells were generated by transient transfecting host human embryonic kidney (HEK) 293 cells with 2 DNA constructs containing each protein's coding sequence. Cells were suspension cultured at 37° C. with 5% CO2 in […] 293 Expression Medium (Thermofisher). Whole cell membrane was prepared by harvesting the cell pellet, adding cold membrane buffer (50 mM Tris, pH7.5, lx Roche COMPLETE EDTA-free protease inhibitor cocktail) 10 times volume of the cell pellets weight, lysing cell pellet on ice by using Dounce homogenizer, spinning at 200 g 4° C. for 15 min, collecting supernatant and spinning again at 25000 g 4° C. for 50 min, transferring pellet to Dounce homogenizer, re-suspending pellet by homogenizing in membrane buffer on ice to reach ˜25 mg/mL, then keeping whole cell membrane aliquots at −80° C.
Compounds were prepared in a 96-well U bottom plate using an Echo550 machine and 10 mM compound DMSO stock solution, followed by an 8-dose 5-fold serial dilutions protocol with final testing compound concentration ranging from 0.06 to 5000 nM, with DMSO back fill to 100 nL/well and n=2. […] The UniFilter-96 GF/B plates were pre-treated by adding 50 µl/well of 0.3% (v/v) PEI to UniFilter-96 GF/B plates. The plates were sealed and incubated at 4° C. for 3 hrs. Then, the plates were washed with ice-cold assay buffer 3 times. The radioligand binding assay was prepared by adding assay buffer diluted hEBP-DHCR7 membrane at 66.7 μg/ml×150 l/well into the 96-well compound plate to reach 10 μg membrane per well. Then, the assay buffer diluted [3H]—((S)-6-(2-Methyl-3-(6-(trifluoromethyl)pyridin-3-yl)propyl)-2-thia-6-azaspiro[3.4]octane 2,2-dioxide or (R)-6-(2-Methyl-3-(6-(trifluoromethyl)pyridin-3-yl)propyl)-2-thia-6-azaspiro[3.4]octane 2,2-dioxide) was added at 25 nM×50 l/well. Following this, the plate was centrifuged at 1000 rpm for 30 secs. The plate was then sealed and agitated at 600 rpm at 22° C. for 5 min, and then incubated at 22° C. for 3 hrs. The incubation was stopped by transferring the binding solution to the pre-treated UniFilter-96 GF/B plate, vacuum filtrated, and then washed four times with ice-cold assay buffer. Following this, the plates were dried at 37° C. for 45 min. The plates were then sealed at the bottom. 40 µl/well of scintillation cocktail was added to the plates. A MicroBeta2 microplate counter was then used to read the plate and analyze the data. For reference and test compounds, the results are expressed as % Inhibition, using the normalization equation: N=100−100×(U−C2)/(C1−C2), where U is the unknown value, C1 is the average of high controls, and C2 is the average value of low controls. The IC50 was determined by fitting percentage of inhibition as a function of compound concentrations with Hill equation using XLfit. Results are expressed as hEBP-DHCR7 Ki (uM) in Table 4. Ki was calculated as described above; * indicates isolated isomer or isomers, but that the stereochemistry has not been assigned.

[2] = system: zymostenol accumulation in EpiSC-derived OPCs (EBP); assay: GC/MS-based sterol profiling (zymostenol accumulation); assay type: cell-based; details: Mus musculus, 24 hours, 8 doses from 0.15 nM to 333 nM, read-out: Zymostenol GCMS EC50
Method: (§1) To assess effects of treatments on OPCs, all treatments were assayed in two or more independent platings of epiblast stem cell-derived OPCs (EpiSC). EpiSC-derived OPCs were obtained using in vitro differentiation protocols and culture conditions described previously (Najm et al, 2011, Nature Methods). OPCs were expanded and frozen down in aliquots. OPCs were thawed into growth conditions for at least one passage before use in further assays.
Sterols were monitored using a modified Folch wash protocol (Hubler et al, 2018, Nature). EpiSC-derived OPCs were plated at 100,000 cells per well in PO- and laminin-coated 96-well plates in N2B27 media without growth factors. After 24 hours, cells were rinsed with saline and plates were frozen. Cholesterol-d7 standard was then added to each well before drying under nitrogen stream and derivatization with 55 μl of bis(trimethylsilyl) trifluoroacetamide. After derivatization, 2 μl were analyzed by gas chromatography/mass spectrometry using an Agilent 5973 Network Mass Selective Detector equipped with a 6890 gas chromatograph system and a HP-5MS capillary column (30 m×0.25 mm×[…]). Samples were analyzed in full scan mode using electron impact ionization; ion fragment peaks were integrated to calculate sterol abundance, and quantitation was relative to cholesterol-d7. The following ion fragments were used to quantitate each metabolite: cholesterol-d7 (465), FF-Mas (482), cholesterol (368), zymostenol (458), zymosterol (456), Desmosterol (456, 343), 7-dehydrocholesterol (456, 325), lanosterol (393), lathosterol (458), 14-dehydrozymostenol (456, 351). […] All standards were obtained from Avanti Polar Lipids unless otherwise indicated. Calibration curves were generated by injecting varying concentrations of sterol standards and maintaining a fixed amount of cholesterol-D7. For normalized zymostenol accumulation results, the total amount of zymostenol measured after drug treatment was divided by the total amount of zymostenol accumulated after 24 hr treatment with 100 nM positive control reference.

EpiSC-derived OPCs = assay: In vitro phenotypic screening of OPCs (MBP high-content imaging); assay type: cell-based; details: Mus musculus, 72 h; percentage of MBP-positive oligodendrocytes, 3 days, 0.5 nM to 1000 nM; read-out: OPC EC50
Method: as §1
EpiSC-derived OPCs were grown and expanded in poly-L-ornithine (PO) and laminin-coated flasks in N2B27 media (DMEM/F12 (Gibco), N2-MAX (R&D Systems), B-27 (ThermoFisher), and GlutaMax (Gibco)) supplemented with FGF2 ([…], R&D systems, 233-FB-025) and PDGF-AA ([…], R&D systems, 233-AA-050) before harvesting for experiments. The cells were seeded onto poly-L-ornithine or poly-D-lysine coated CellCarrier Ultra plates (PerkinElmer) coated with laminin (Sigma, L2020) at a density of 150,000/cm^2 in N2B27 media without growth factors. For dose-response testing, a 1000× compound stock in dimethyl sulphoxide (DMSO) was added to assay plates, resulting in 8-point dose curves with final concentrations between 1000 nM and 0.5 nM. Positive controls and DMSO vehicle controls were included in each assay plate. Cells were incubated under standard conditions (37° C., 5% CO2) for 3 days and fixed with 4% paraformaldehyde (PFA) in phosphate buffered saline (PBS) for 20 min. Fixed plates were washed with PBS, permeabilized with 0.1% Triton X-100, and blocked with 10% donkey serum (v/v) in PBS for 40 min. Then, cells were labelled with MBP antibodies (Abcam, ab7349; 1:200) for 2 h at room temperature, washed with PBS, and stained with Alexa Fluor conjugated secondary antibodies (1:500) for 45 min. Nuclei were visualized by DAPI staining (Sigma; 1 μg/ml), followed by further PBS washes.
Cells and cell culture plates were imaged on the Operetta High Content Imaging and Analysis system (PerkinElmer). Analysis (PerkinElmer Harmony and Columbus software) began by identifying intact nuclei stained by DAPI. The peri-nuclear region of each cell was then cross-referenced with the […] (MBP) stain to identify oligodendrocyte nuclei, and from this the percentage of oligodendrocytes was calculated.

Q: How did the pKi [1] turn out when `CC(C)n1nc(-c2cncc(C(F)(F)F)c2)cc1[C@H]1[C@@H]2C[C@H](N3CC[C@]4(CCS(=O)(=O)C4)C3)C[C@@H]21` (single isomer, unassigned) [Compound 10*] was run?
A: 7.70

Q: What about the pEC50 [2] of the same compound?
A: 8.32

Q: And the pEC50 (EpiSC-derived OPCs)?
A: 7.89

Q: How did the pKi [1] turn out when `CC(C)n1nc([C@H]2CC[C@H](C(F)(F)F)CC2)cc1[C@H]1[C@@H]2C[C@@H](N3CCC4(C3)CS(=O)(=O)C4)C[C@@H]21` (single isomer, unassigned) [Compound 107] was run?
A: 7.80

Q: And the pEC50 [2]?
A: 8.12

Q: What about the pEC50 (EpiSC-derived OPCs) of the same compound?
A: 7.28

Q: `CC(C)n1nc(C(F)(F)F)cc1[C@H]1[C@@H]2C[C@H](N3CCC4(CC3)CS(=O)(=O)C4)C[C@@H]21` (single isomer, unassigned) [Compound 44*] was tested. Which pKi [1] did it give?
A: 7.57

Q: What about the pEC50 [2] of the same compound?
A: 8.17

Q: And the pEC50 (EpiSC-derived OPCs)?
A: 7.85

Q: How did the pKi [1] turn out when `CCn1nc(-c2cncc(F)c2)cc1[C@H]1[C@@H]2C[C@@H](N3CCC4(C3)CS(=O)(=O)C4)C[C@@H]21` (single isomer, unassigned) [Compound 68*] was run?
A: 7.06

Q: What about the pEC50 [2] of the same compound?
A: 7.85

Q: And the pEC50 (EpiSC-derived OPCs)?
A: 7.22

Q: Which results are given for `CC(C)(C)n1nc(C(F)(F)F)cc1[C@H]1[C@@H]2C[C@@H](N3CCC4(C3)CS(=O)(=O)C4)C[C@@H]21` (single isomer, unassigned) [Compound 57]?
A: pKi [1]: 7.59; pEC50 [2]: 8.46; pEC50 (EpiSC-derived OPCs): 7.74

Q: How did the pKi [1] turn out when `CC(C)(C)n1nc(C(F)(F)F)cc1[C@H]1[C@@H]2C[C@H](N3CCC4(C3)CS(=O)(=O)C4)C[C@@H]21` (single isomer, unassigned) [Compound 58] was run?
A: 7.92

Q: And the pEC50 [2]?
A: 8.48

Q: What about the pEC50 (EpiSC-derived OPCs) of the same compound?
A: 7.72

Q: What does the source list for `CC(C)n1nc(-c2ccc(C(F)(F)F)nc2)cc1[C@H]1[C@@H]2C[C@H](N3CCC4(C3)CS(=O)(=O)C4)C[C@@H]21` (single isomer, unassigned) [Compound 14]?
A: pKi [1]: 7.89; pEC50 [2]: 8.70; pEC50 (EpiSC-derived OPCs): 8.54

Q: `CCn1nc(-c2ccccn2)cc1[C@H]1[C@@H]2C[C@H](N3CCC4(C3)CS(=O)(=O)C4)C[C@@H]21` [Compound 73, 6-((1R,3r,5S,6r)-6-(1-ethyl-3-(pyridin-2-yl)-1H-pyrazol-5-yl)bicyclo[3.1.0]hexan-3-yl)-2-thia-6-azaspiro[3.4]octane 2,2-dioxide] was tested. Which pKi [1] did it give?
A: 7.23

Q: And the pEC50 [2]?
A: 7.49

Q: And the pEC50 (EpiSC-derived OPCs)?
A: 7.04

Q: `O=S1(=O)CC2(CCN([C@@H]3C[C@@H]4[C@H](C3)[C@H]4c3cc(C(F)(F)F)nn3CC(F)F)C2)C1` (single isomer, unassigned) [Compound 90*] was tested. Which pKi [1] did it give?
A: 7.15

Q: And the pEC50 [2]?
A: 7.68

Q: And the pEC50 (EpiSC-derived OPCs)?
A: 6.72

Q: How did the pKi [1] turn out when `CC(C)n1nc(-c2cncc(C(F)(F)F)c2)cc1[C@H]1[C@@H]2C[C@@H](N3CCC4(C3)CS(=O)(=O)C4)C[C@@H]21` (single isomer, unassigned) [Compound 3] was run?
A: 7.79

Q: And the pEC50 [2]?
A: 8.41

Q: And the pEC50 (EpiSC-derived OPCs)?
A: 7.47

Q: `CCn1nc(-c2ccnc(C(F)(F)F)c2)cc1[C@H]1[C@@H]2C[C@H](N3CCC4(C3)CS(=O)(=O)C4)C[C@@H]21` [Compound 27, 6-((1R,3r,5S,6r)-6-(1-ethyl-3-(2-(trifluoromethyl)pyridin-4-yl)-1H-pyrazol-5-yl)bicyclo[3.1.0]hexan-3-yl)-2-thia-6-azaspiro[3.4]octane 2,2-dioxide] was tested. Which pKi [1] did it give?
A: 7.94

Q: What about the pEC50 [2] of the same compound?
A: 8.64

Q: And the pEC50 (EpiSC-derived OPCs)?
A: 8.80

Q: What does the source list for `O=S1(=O)CC2(CCN([C@@H]3C[C@@H]4[C@H](C3)[C@H]4c3cc(C(F)(F)F)nn3CC(F)F)CC2)C1` (single isomer, unassigned) [Compound 62*]?
A: pKi [1]: 6.87; pEC50 [2]: 7.92; pEC50 (EpiSC-derived OPCs): 7.22

Q: Which results are given for `CC(C)n1nc(-c2cncc(OC(F)F)c2)cc1[C@H]1[C@@H]2C[C@H](N3CCC4(CC3)CS(=O)(=O)C4)C[C@@H]21` (single isomer, unassigned) [Compound 46*]?
A: pKi [1]: 7.46; pEC50 [2]: 7.62; pEC50 (EpiSC-derived OPCs): 7.36

Q: What does the source list for `CC(C)(C)n1nc(C(F)(F)F)cc1[C@H]1[C@@H]2C[C@@H](N3CCC4(CC3)CS(=O)(=O)C4)C[C@@H]21` (single isomer, unassigned) [Compound 55]?
A: pEC50 [2]: 8.52; pEC50 (EpiSC-derived OPCs): 8.48

Q: With `CC(C)n1nc(C(F)(F)F)cc1[C@H]1[C@@H]2C[C@@H](N3CCC[C@@]4(CCS(=O)(=O)C4)C3)C[C@@H]21` (single isomer, unassigned) [Compound 92*] as the compound, how does the pEC50 [2] read?
A: 7.35

Q: What about the pEC50 (EpiSC-derived OPCs) of the same compound?
A: 7.23

Q: What does the source list for `CC(C)n1nc(-c2cccc(C(F)(F)F)c2)nc1[C@H]1[C@@H]2C[C@H](N3CCC4(CC3)CS(=O)(=O)C4)C[C@@H]21` [Compound 74, 7-((1R,3r,5S,6r)-6-(1-isopropyl-3-(3-(trifluoromethyl)phenyl)-1H-1,2,4-triazol-5-yl)bicyclo[3.1.0]hexan-3-yl)-2-thia-7-azaspiro[3.5]nonane 2,2-dioxide]?
A: pEC50 [2]: 8.41; pEC50 (EpiSC-derived OPCs): 7.89

Q: How did the pEC50 [2] turn out when `CC(C)(C)n1nc(C(F)(F)F)cc1[C@H]1[C@@H]2C[C@H](N3CCC4(CC3)CS(=O)(=O)C4)C[C@@H]21` [Compound 56, 7-((1R,3r,5S,6r)-6-(1-(tert-butyl)-3-(trifluoromethyl)-1H-pyrazol-5-yl)bicyclo[3.1.0]hexan-3-yl)-2-thia-7-azaspiro[3.5]nonane 2,2-dioxide] was run?
A: 8.24

Q: What about the pEC50 (EpiSC-derived OPCs) of the same compound?
A: 7.72
